In patent US20130028959A1, “Liposomes for Preventing the Spread of HIV” (Massachusetts Institute of Technology, priority 2009, published 2013):

Assay: Surface charge of lipids used to make liposomes
Format: physicochemical
Conditions: lipid used to make liposomes

In the case of “Phosphatidylcholine [Phosphatidylcholine (PC)]”, the Relative charge was “No”.
